# Source: PubChem BioAssay (NCI)
#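 Cells were grown in 96-well plates and exposed to each compound for 48 hours at five concentrations; endpoints were interpolated linearly between bracketing concentrations, or set to the highest concentration if not reached. GI50 marks 50% less growth. At the TGI there is no net growth.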
# Experiments:
# Assay in all cases: NCI anticancer screen, dose series, 48 h
# A498 renal = system: A498 renal
# UACC-62 melanoma = system: UACC-62 melanoma
# K-562 leukemia = system: K-562 leukemia
# SNB-19 CNS = system: SNB-19 CNS
# SF-539 CNS = system: SF-539 CNS
# T-47D breast = system: T-47D breast
# MDA-MB-231 breast = system: MDA-MB-231 breast
# CCRF-CEM leukemia = system: CCRF-CEM leukemia
# SF-268 CNS = system: SF-268 CNS
# MALME-3M melanoma = system: MALME-3M melanoma
SMILES,TGI (A498 renal) [µM],TGI (UACC-62 melanoma) [µM],TGI (K-562 leukemia) [µM],TGI (SNB-19 CNS) [µM],TGI (SF-539 CNS) [µM],TGI (T-47D breast) [µM],TGI (MDA-MB-231 breast) [µM],TGI (CCRF-CEM leukemia) [µM],TGI (SF-268 CNS) [µM],TGI (MALME-3M melanoma) [µM],GI50 (A498 renal) [nM],GI50 (UACC-62 melanoma) [µM],GI50 (K-562 leukemia) [µM],GI50 (SNB-19 CNS) [µM],GI50 (SF-539 CNS) [µM],GI50 (T-47D breast) [µM],GI50 (MDA-MB-231 breast) [nM],GI50 (CCRF-CEM leukemia) [nM],GI50 (SF-268 CNS) [µM],GI50 (MALME-3M melanoma) [µM]
C=C(C)C12CC(COC(=O)c3ccccc3)C34OC5(OC1C3C1OC1(CO)C(O)C1(O)C(OC(=O)c3ccccc3)C(C)C(C(C)CCCCCCC5O)C14)O2 (stereo not given),> 100,> 100,> 100,> 100,> 100,> 100,> 100,> 100,> 100,> 100,–,–,–,–,–,–,–,–,–,–
C[C@@]12[C@H]3CC[C@@H]1[C@H](O)C(=O)N2CC3,> 100,> 100,> 100,> 100,> 100,> 100,> 100,> 100,> 100,> 100,–,–,–,–,–,–,–,–,–,–
COc1ccc(C2CC(c3c(O)ccc4ccccc34)=NN2c2ccc([N+](=O)[O-])cc2[N+](=O)[O-])cc1OC (stereo not given),35.9,> 100,20.2,> 60.3,> 79.8,79.7,> 68.8,> 50.3,> 100,56.4,–,–,–,–,–,–,–,–,–,–
Cc1ccc(C(=O)Nc2ccc(CP(=O)(O)O)cc2CP(=O)(O)O)cc1NC(=O)c1cccc(N)c1,> 100,> 100,> 100,–,> 100,> 100,> 100,> 100,> 100,> 100,–,–,–,–,–,–,–,–,–,–
COCOC1/C=C/CCCC#C[C@H](C)C(=O)CC1 (stereo not given in full),25.4,22.6,5.28,32.6,30.4,31.3,17,8.46,26.5,19.4,–,–,–,–,–,–,–,–,–,–
O=C(O)c1c2c(cc3c1CC1(Cc4ccccc4C1)C3)CCC2,> 100,> 100,> 100,–,> 100,> 100,> 100,66.7,> 100,> 100,–,–,–,–,–,–,–,–,–,–
Cc1nc(-c2ccc([N+](=O)[O-])cc2)cn2c1nc1ccccc12,> 100,53.8,> 100,> 100,> 100,> 100,> 100,> 100,> 100,> 100,–,–,–,–,–,–,–,–,–,–
COc1ccc2[nH]c(O)c(/C=c3/cc4c(c(-c5cc(OC)c(OC)c(OC)c5)n3)=Nc3ccccc3-4)c2c1,8.72,> 100,> 100,> 100,> 100,> 100,36.6,12.4,> 100,> 100,1700,13.6,4.14,26,22.6,28.5,982,1410,46.4,63.6
C=C1CC(COc2cc(=O)oc3ccccc23)(c2ccccc2)OC1=O (stereo not given),7.47,2.92,3.1,37.3,7.69,5.27,11.9,2.26,29.7,3.11,–,–,–,–,–,–,–,–,–,–
Cc1ccc([C@@H]2[C@@H](C(=O)c3ccccn3)[C@H](c3ccc(C)cc3)C[C@](O)(c3ccccn3)[C@H]2C(=O)c2ccccn2)cc1,> 41.6,35.2,> 100,> 64.3,> 100,> 100,> 100,4.43,> 100,> 100,–,–,–,–,–,–,–,–,–,–
O=c1nc(N2CCN(c3ccccc3)CC2)ccn1C1OC(CO)C(O)C1O (stereo not given),> 100,> 100,> 100,> 100,> 100,65.6,> 100,> 100,> 100,> 100,–,–,–,–,–,–,–,–,–,–
CC(C)Sc1nc(C#N)cc2c1CCCC2,> 100,> 100,> 100,> 100,> 100,> 100,> 100,55.8,> 100,> 100,–,–,–,–,–,–,–,–,–,–
O=C(CN1c2ccccc2Sc2ccccc21)N1CCNCC1,> 100,> 100,> 100,> 100,> 100,> 100,> 100,> 100,> 100,> 100,–,–,–,–,–,–,–,–,–,–
O=C1C(Cl)=C(N2CCN(C3=C(Cl)C(=O)c4ccccc4C3=O)CC2)C(=O)c2ccccc21,13.7,3.29,–,28.7,3.15,2.06,3.34,0.718,6.1,3.32,–,–,–,–,–,–,–,–,–,–
COc1cc(O)c(/C=N/N=C(\N)NO)c(OC)c1,> 10,> 10,> 10,> 10,> 10,> 10,> 10,> 10,> 10,> 10,–,–,–,–,–,–,–,–,–,–
COCOC1/C=C/CCCCC2=C(C)C=C(C1)O2 (stereo not given),> 100,> 100,> 100,> 100,> 100,> 100,> 100,> 100,> 100,> 100,–,–,–,–,–,–,–,–,–,–
CCOc1cc(NC(C)=O)ccc1C(=O)NNC(=O)c1ccccc1OC(C)=O,73.8,37,> 40.3,> 100,> 80.7,> 46.4,> 100,> 100,> 100,> 100,–,–,–,–,–,–,–,–,–,–

SMILES,TGI (A498 renal) [µM],TGI (UACC-62 melanoma) [µM],TGI (K-562 leukemia) [µM],TGI (SNB-19 CNS) [µM],TGI (SF-539 CNS) [µM],TGI (T-47D breast) [µM],TGI (MDA-MB-231 breast) [µM],TGI (CCRF-CEM leukemia) [µM],TGI (SF-268 CNS) [µM],TGI (MALME-3M melanoma) [µM],GI50 (A498 renal) [nM],GI50 (UACC-62 melanoma) [µM],GI50 (K-562 leukemia) [µM],GI50 (SNB-19 CNS) [µM],GI50 (SF-539 CNS) [µM],GI50 (T-47D breast) [µM],GI50 (MDA-MB-231 breast) [nM],GI50 (CCRF-CEM leukemia) [nM],GI50 (SF-268 CNS) [µM],GI50 (MALME-3M melanoma) [µM]
CCCCN1C(=O)CC2[C@@H]3CCc4cc(OC(C)=O)ccc4C3CC[C@]2(C)C1=O (stereo not given in full),> 10,> 10,> 10,> 10,> 10,> 10,> 10,> 10,> 10,> 10,–,–,–,–,–,–,–,–,–,–
CC[C@]1(Cc2ccc(OC)c(OC)c2)CN(S(=O)(=O)c2ccc(C)cc2)C[C@@H]1OC(C)=O,> 100,> 100,> 100,> 100,> 100,> 100,> 100,> 100,> 100,> 100,–,–,–,–,–,–,–,–,–,–
CCCCCCCCCCCCCCCCCCNc1ccn(C2OC(COP(=O)(O)OCC3OC(n4ccc(NC(=O)CCCCCCCCCCCCCCCCC)nc4=O)C(OC(C)=O)C3OC(C)=O)C(OC(C)=O)C2OC(C)=O)c(=O)n1 (stereo not given),> 100,> 100,> 100,> 100,> 100,> 100,> 100,> 100,> 100,> 100,–,–,–,–,–,–,–,–,–,–
CC1=C2C(=O)NN=C2CCN1c1ccc(Br)cc1,> 100,> 100,–,> 100,> 100,> 100,> 100,8.26,> 100,> 100,–,–,–,–,–,–,–,–,–,–
COc1ccccc1Nc1nc(N)nc(N)c1N=O,> 100,> 100,> 100,> 100,> 100,> 100,> 100,> 100,> 100,> 100,–,–,–,–,–,–,–,–,–,–
COc1cccc2c(N)c3cccc(C(=O)NCCN(C)C)c3nc12,1.15,0.78,0.383,1.44,0.758,5.38,0.853,0.288,0.51,0.501,–,–,–,–,–,–,–,–,–,–
Brc1ccc(CCNCCN2CCCCC2)cc1,32,–,> 100,34,23.3,32,21.4,> 100,33.3,31.7,–,–,–,–,–,–,–,–,–,–
CC(C)(N=NC(C)(C)C(=O)NCCO)C(=O)NCCO,> 100,> 100,> 100,> 100,> 100,> 100,> 100,> 100,> 100,> 100,–,–,–,–,–,–,–,–,–,–
NC(=O)N/N=C(\Cc1nc2ccc(Cl)cc2[nH]c1=O)C(=O)Nc1ccc(Cl)cc1Cl,> 100,> 100,> 100,> 100,> 100,> 100,> 100,> 100,> 100,> 100,–,–,–,–,–,–,–,–,–,–
CN(C)CCCOc1nc2c(c(=O)n(C)c(=O)n2C)n1C (tested in a mixture with another compound),> 100,6.42,> 100,> 100,58.3,> 100,32.2,> 100,> 100,27.4,–,–,–,–,–,–,–,–,–,–
Nc1ccc2nc(-c3ccccn3)c(-c3ccccn3)nc2c1,> 100,> 100,> 100,> 100,> 100,> 100,> 100,> 100,> 100,> 100,–,–,–,–,–,–,–,–,–,–
CN(CCC#N)c1ccc(/C=C2\SC(=S)NC2=O)cc1,> 100,47.3,> 100,> 100,> 100,> 100,> 100,> 100,> 100,> 100,–,–,–,–,–,–,–,–,–,–
O=C1/C(=C/c2ccccc2)N=C(c2ccccc2)N1n1c(-c2ccccc2)nc2ccccc2c1=O,> 100,> 100,> 100,> 100,> 100,> 100,> 100,> 100,> 100,> 100,–,–,–,–,–,–,–,–,–,–
OC1C2[C@@H](O)CCCN2C[C@@H](O)[C@H]1O (stereo not given in full),> 100,> 100,> 100,> 100,> 100,> 100,> 100,> 100,> 100,> 100,–,–,–,–,–,–,–,–,–,–
CC(CN1c2ccccc2Sc2ccccc21)N(C)C (stereo not given),34.4,33.9,36.1,33,34,41.6,32.4,40.1,33.5,34.5,–,–,–,–,–,–,–,–,–,–
CN(C)CCCOC(=O)C(c1ccccc1)C1(O)CCSCC1 (stereo not given),> 100,> 100,> 100,78.6,> 100,> 100,> 100,> 100,> 100,> 100,–,–,–,–,–,–,–,–,–,–
